Measured values from US20050182065A1, “Method of stimulating hair growth” (priority 2004, published 2005).

Columns and labels:
[1] = system: C3H/HeN mice; assay: Telogen Conversion Assay; format: in vivo; conditions: for Results: number of days following initiation of treatment when hair growth appeared in 50% of the mice: topical once daily for 5 days, propylene glycol 30%/ethanol 70%
From the text: The Telogen Conversion Assay measures the potential of a compound (hereinafter referred to as the “test compound”) to convert mice in the resting stage of the hair growth cycle (“telogen”) to the active stage of the hair growth cycle (“anagen”). This assay takes advantage of the fact that the fur (i.e. hair) of 40-day-old C3H/HeN mice is in the telogen phase. This phase usually continues until about 75 days of age, at which point, anagen naturally occurs in these animals. In this assay, selected areas of 40-day-old mice (approximate) are shaved, contacted with a test agent, or a control, and the difference in the rate of hair growth is measured (i.e. induction of the anagen phase). The first sign of anagen is the darkening of skin color as melanocytes in the follicles start to synthesize melanin, in preparation for the production of pigmented hairs.
Female C3H/HeN mice, 7 weeks old (Charles River Laboratories, Raleigh, N.C.) were used for the study. Fur was clipped from the dorsal region of the mice prior to initiation of the study. Only mice with pink skin, a visual indication of the telogen phase, were selected for inclusion in the study.
Test compounds (from Table A) were dissolved in a vehicle consisting of propylene glycol (30%) and ethanol (70%). A test compound dissolved in vehicle, or a vehicle control (30/70 propylene glycol/ethanol, unless otherwise specified) was applied topically to the clipped dorsal region of the mice in each test group (7-10 mice) in a volume of 20 μl/cm^2. Treatments were applied once daily for 5 days.
The treatment area was observed and graded for signs of hair growth. The hair growth response was quantified by recording, for each animal, the day on which signs of hair growth first appeared over the treated area. The first sign of anagen was the darkening of skin color as melanocytes in the follicles started to synthesize melanin. The response time was measured as the number of days between initiation of treatment and when hair growth was present in 50% of the mice in a given group.
The results are reported as the number of days following initiation of treatment when hair growth appeared in 50% of the mice in a given group.

[2] = system: C3H/HeN mice; assay: Telogen Conversion Assay; format: in vivo; conditions: Experiment 8; for Results: number of days following initiation of treatment when hair growth appeared in 50% of the mice: topical once daily for 5 days, solvent polyethylene glycol 30 v/v %, ethanol 30 v/v %, transcutanol 40 v/v %, vehicle 28

SMILES: Cn1nc(O[C@@H]2c3cc(S(=O)(=O)c4cccc(O)c4)ccc3OC(C)(C)[C@@]2(C)O)ccc1=O [Compound #1, (3S,4R)-3,4-dihydro-4-(2,3-dihydro-2-methyl-3-oxopyridazin-6-yl)oxy-3-hydroxy-6-(3-hydroxyphenyl)sulphonyl-2,2,3-trimethyl-2H-benzo[b]pyran]
- Relative efficacy in the telogen conversion assay (summary) ([1]; 15 experiments, compared with the other potassium channel openers of Table A): showed the highest relative efficacy in the model
- Results: number of days following initiation of treatment when hair growth appeared in 50% of the mice ([1]; Experiment 1, 1.0 w/v %, terminated early): >35 days
- Induction of anagen (conclusion in words) ([1]; Experiment 2): exhibited signs of anagen sooner than those receiving Compound #6
- Results: number of days following initiation of treatment when hair growth appeared in 50% of the mice ([1]; Experiment 2, 0.3 w/v %, vehicle 25): 11 days
- Results: number of days following initiation of treatment when hair growth appeared in 50% of the mice ([1]; Experiment 2, 1.0 w/v %, vehicle 25): 11 days
- Results: number of days following initiation of treatment when hair growth appeared in 50% of the mice ([1]; Experiment 3, 0.1 w/v %, terminated early): >35 days
- Results: number of days following initiation of treatment when hair growth appeared in 50% of the mice ([1]; Experiment 3, 0.3 w/v %, terminated early): >35 days
- Results: number of days following initiation of treatment when hair growth appeared in 50% of the mice ([1]; Experiment 3, 1.0 w/v %, terminated early): >35 days
- Results: number of days following initiation of treatment when hair growth appeared in 50% of the mice ([1]; Experiment 4, 0.3 w/v %, vehicle >33): 26 days
- Results: number of days following initiation of treatment when hair growth appeared in 50% of the mice ([1]; Experiment 4, 1.0 w/v %, vehicle >33): 26 days
- Induction of anagen (conclusion in words) ([1]; Experiment 4, terminated early): induced anagen at each of the test concentrations
- Results: number of days following initiation of treatment when hair growth appeared in 50% of the mice ([1]; Experiment 5, 0.03 w/v %, vehicle >35): >35 days
- Results: number of days following initiation of treatment when hair growth appeared in 50% of the mice ([1]; Experiment 5, 0.1 w/v %, vehicle >35): >35 days
- Results: number of days following initiation of treatment when hair growth appeared in 50% of the mice ([1]; Experiment 5, 0.3 w/v %, vehicle >35): >35 days
- Results: number of days following initiation of treatment when hair growth appeared in 50% of the mice ([1]; Experiment 6, 0.003 w/v %, vehicle >35): >35 days
- Results: number of days following initiation of treatment when hair growth appeared in 50% of the mice ([1]; Experiment 6, 0.03 w/v %, vehicle >35): >35 days
- Results: number of days following initiation of treatment when hair growth appeared in 50% of the mice ([1]; Experiment 6, 0.3 w/v %, vehicle >35): 28 days
- Induction of anagen (conclusion in words) ([1]; Experiment 6, terminated early, up to day 35): induced anagen despite the early termination of the experiment
- Results: number of days following initiation of treatment when hair growth appeared in 50% of the mice ([1]; Experiment 7, 0.003 w/v %, vehicle 29): 26 days
- Results: number of days following initiation of treatment when hair growth appeared in 50% of the mice ([1]; Experiment 7, 0.03 w/v %, vehicle 29): 24 days
- Results: number of days following initiation of treatment when hair growth appeared in 50% of the mice ([1]; Experiment 7, 0.3 w/v %, vehicle 29): 19 days
- Induction of anagen (conclusion in words) ([1]; Experiment 7, proceeded to completion): induced anagen at all of the concentrations tested
- Results: number of days following initiation of treatment when hair growth appeared in 50% of the mice ([1]; Experiment 8, 1.0 w/v %, vehicle >35): 18 days
- Results: number of days following initiation of treatment when hair growth appeared in 50% of the mice ([1]; Experiment 9, 0.03 w/v %, terminated early): >33 days
- Results: number of days following initiation of treatment when hair growth appeared in 50% of the mice ([1]; Experiment 9, 0.3 w/v %, terminated early): >33 days
- Results: number of days following initiation of treatment when hair growth appeared in 50% of the mice ([1]; Experiment 9, 1.0 w/v %, terminated early): >33 days
- Results: number of days following initiation of treatment when hair growth appeared in 50% of the mice ([1]; Experiment 10, 0.1 w/v %, terminated early): >34 days
- Results: number of days following initiation of treatment when hair growth appeared in 50% of the mice ([1]; Experiment 10, 0.3 w/v %, terminated early): >34 days
- Induction of anagen (conclusion in words) ([1]; Experiment 11): induced anagen
- Results: number of days following initiation of treatment when hair growth appeared in 50% of the mice ([1]; Experiment 11, 0.3 w/v %, vehicle 56): 25 days
- Induction of anagen (conclusion in words) ([1]; Experiment 12): did not induce anagen
- Results: number of days following initiation of treatment when hair growth appeared in 50% of the mice ([1]; Experiment 12, 1.0 w/v %, vehicle 37): 39 days
- Induction of anagen (conclusion in words) ([1]; Experiment 13): induced anagen
- Results: number of days following initiation of treatment when hair growth appeared in 50% of the mice ([1]; Experiment 13, 1.0 w/v %, vehicle 28): 14 days
- Induction of anagen (conclusion in words) ([1]; Experiment 14): induced anagen
- Results: number of days following initiation of treatment when hair growth appeared in 50% of the mice ([1]; Experiment 14, 1.0 w/v %, vehicle 29): 25 days
- Results: number of days following initiation of treatment when hair growth appeared in 50% of the mice ([1]; Experiment 15, 0.3 w/v %, vehicle >30): 16 days
- Results: number of days following initiation of treatment when hair growth appeared in 50% of the mice ([1]; Experiment 15, 1.0 w/v %, vehicle >30): 23 days
- Induction of anagen (conclusion in words) ([1]; Experiment 15, terminated early): induced anagen at both of the concentrations tested
- Results: number of days following initiation of treatment when hair growth appeared in 50% of the mice ([2]; 0.3 w/v %): 21 days
- Results: number of days following initiation of treatment when hair growth appeared in 50% of the mice ([2]; 1.0 w/v %): 21 days
- Induction of anagen (conclusion in words) ([2]; transcutol, ethanol, polypropylene glycol vehicle): exhibited activity at all doses tested in this vehicle
